Test results: patent US20110112184A1, “COMPOUNDS WITH GLYCIDIC STRUCTURE ACTIVE IN THE THERAPY OF SYSTEMIC AND LOCAL INFLAMMATION” (priority 2008, published 2011)

tested on: HT29 cells; experiment: LPS-induced IL-8 production by HT29 intestinal epithelial cells (ELISA); assay type: cell-based, human; details: compounds 50 mg/L to 5 μg/L for 18 h, then LPS (Salmonella enterica abortus equi) 1 μg/ml 6 h
Description: FIG. 2A. LPS-induced IL-8 production by HT29 cells in the absence or presence of the indicated concentrations of compound (c) 4, 5, 6, 7, 4′, 14.
The effect of the compounds on the release of IL-8 or KC was tested upon stimulation of intestinal epithelial cells (IEC) with LPS from Salmonella enterica abortus equi. The human IEC line HT29 was used for these experiments. Cells were cultured for 18 h in medium alone or in medium additioned with different concentrations of compounds 4, 5, 6, 7, 4′ and 14 (from 50 mg/L to 5 μg/L). Then, cells were stimulated for 6 h with LPS (1 μg/ml). […] Similar experiments were performed on a human pneumocyte type II cell line (A549) using compound 4 and LPS from Pseudomonas aeruginosa.

| Compound | production of IL-8 induced by LPS |
| --- | --- |
| CN(C)c1cccc2c(S(=O)(=O)NCC[C@H]3O[C@H](CO)[C@H](O)[C@H](O)[C@H]3O)cccc12 [4′, 5-(Dimethylamino)-N-[2′-(α-D-galactopyranosyl)ethyl]-1-naphthalenesulfonamide] | significantly inhibited |
| O=S(=O)(NCC[C@H]1O[C@H](CO)[C@@H](O)[C@H](O)[C@H]1O)c1cccc2ccccc12 [Compound 5] | significantly inhibited |
| O=C(NCC[C@H]1O[C@H](CO)[C@@H](O)[C@H](O)[C@H]1O)c1cccc2ccccc12 [Compound 6, N-[2′-(α-D-Glucopyranosyl)ethyl]-1-naphtalenecarboxyamide] | significantly inhibited |
| CCCCN(CCCC)c1cccc2c(S(=O)(=O)NCC[C@H]3O[C@H](CO)[C@@H](O)[C@H](O)[C@H]3O)cccc12 [Compound 7, 5-(Dibutylamino)-N-[2′-(α-D-glucopyranosyl)ethyl]-1-naphthalenesulfonamide] | significantly inhibited |
| CN(C)c1cccc2c(S(=O)(=O)NCCCC[C@H]3O[C@H](CO)[C@@H](O)[C@H](O)[C@H]3O)cccc12 [Compound 14, 5-(Dimethylamino)-N-[4′-(α-D-glucopyranosyl)butyl]-1-naphthalenesulfonamide] | significantly inhibited |
